Assay results as given in patent EP1140110B1, “CLATHRATES OF DEHYDROEPIANDROSTERONE AND CORRESPONDING PHARMACEUTICAL COMPOSITIONS” (Euphar Group S.R.L., priority 1998, dated 2000).

Tests used:
[1] = Kinetics and metabolism of exogenous DHEA (100 mg single oral dose, young and elderly male subjects); assay type: in vivo; settings: 100 mg DHEA single oral dose
Protocol: This first part of the experimentation was carried out with the purpose of verifying the kinetics and processes of sulfoconjugation and bioconversion of DHEA as such administered to male subjects. The said subjects were divided into two groups according to age: one group of 7 young subjects aged between 24 and 32, and one group of 10 elderly subjects, aged between 67 and 86. Each one of these subjects was administered 100 mg of DHEA in a single dose by oral route. At 0.5, 1, 2, 3, 4, 6, 9,12 and 24 hours from administration, the blood levels of DHEA, DHEA sulphate, total testosterone and 17-β-estradiol were determined. The evaluations were carried out using the parameter of the maximum delta (maximum peak reached, from which the basal values were subtracted) and the parameter of the area under the curve (triangulation system).

[2] = general statement in prior art section; cited from earlier work

C[C@]12CC[C@H](O)CC1=CC[C@@H]1[C@@H]2CC[C@]2(C)C(=O)CC[C@@H]12 [DHEA, dehydroepiandrosterone]
DHEA blood level response to administration, elderly versus young subjects [1]: significantly greater in the elderly subjects | DHEA sulphate blood level response to administration, elderly versus young subjects [1]: significantly greater in the elderly subjects | molar ratio between DHEA sulphate and DHEA in the response-to-administration curves, young versus elderly [1]: did not show any significant differences | time of DHEA sulphate blood level peak from administration ([1]; both groups (young and elderly)): approximately two | blood levels of 17-β-estradiol versus placebo ([1]; compared with the testosterone finding (evident only in elderly subjects)): the same phenomenon occurred | difference in profile of the testosterone levels versus placebo ([1]; elderly subjects, two-way ANOVA): statistically evident | profile of the testosterone levels versus placebo ([1]; young subjects): did not undergo any substantial differences | solubility in water [2]: practically insoluble in water
